According to US6376510B1, “Neuromuscular relaxants” (Newlaxant LLC, priority 1997, dated 2002):

How the values were obtained:
[1] = tested on: anesthetized rats (evoked responses of anterior tibial muscle); test: In vivo neuromuscular block and cardiovascular side effects, anesthetized rat (Example 8, Table 3); details: rat; for ED50: intravenous dose causing 50% neuromuscular block; for RI (recovery index): spontaneous recovery, 25-75% neuromuscular response; for Onset: time to 80-85% neuromuscular block
Excerpt: The neuromuscular blocking activity and other effects (e.g. cardiovascular side effects) of selected agents were investigated on several different experimental animals. Justification for this approach lies in the commonly known fact that the pharmacodynamic and pharmacokinetic properties of these agents are markedly variable from species to species. Therefore, the most important aspects of the projected therapeutic utility of these agents, e.g., neuromuscular blocking potency, onset and duration of action, and side effects cannot be ascertained in “in vitro” preparations or by using only one species of animals.
a) Adult, male albino rats were anesthetized with pentobarbital injected intraperitoneally. The trachea was cannulated for artificial respiration via a small animal respirator. The carotid artery was cannulated for recording blood pressure via a transducer and heart rate by a cardiotachograph on a polygraph. One external jugular vein was cannulated for i.v. drug administration. Neuromuscular function was monitored by electromyography, recording evoked responses from the anterior tibial muscle as a result of supramaximal nerve stimuli consisting of single or “train-of-four” rectangular pulses of 0.1-0.2 msec duration every 10-12 seconds, delivered to the sciatic or common peroneal nerve by a laboratory nerve stimulator. Another mode of stimulation included repeated single stimuli delivered at 0.1 Hz or 1 Hz. […] The agents were dissolved in physiologic saline and injected intravenously at appropriate time intervals. The intensity, onset, and duration of neuromuscular block and its type were determined with each agent. Through administering several doses, the doses corresponding to 50%, 80% and 90% neuromuscular block were determined. All agents were compared with selected standard neuromuscular blocking compounds, e.g. succinylcholine, pancuronium, mivacurium, or rocuronium.
Onset=time in minutes to 80-85% neuromuscular block.
RI=recovery index, minutes, spontaneous recovery, 25-75% neuromuscular response.
VB=vagal block, %, at 80-85% neuromuscular blocking dose.
ΔHR=change in heart rate, %, at 80-85% neuromuscular blocking dose.
ΔBP=change in arterial blood pressure, %, at 80-85% neuromuscular blocking dose.

[2] = tested on: anesthetized juvenile pigs; test: animal or person; format: in vivo; details: pig; for VB (vagal block) / ΔBP (change in arterial blood pressure) / ΔH (change in heart rate): in vivo; for ED50: intravenous dose causing 50% neuromuscular block; for RI (recovery index): spontaneous recovery, 25-75% neuromuscular response; for Onset: time to 80-85% neuromuscular block
Excerpt: Both electromyographic and mechanomyographic responses can be quantified.
The techniques described under a) and b) were employed in other species as needed with the modification that juvenile pigs were initially anesthetized with inhalation of halothane (Table 5) and monkeys were initially sedated with intramuscular ketamine injections prior to inducing and maintaining general anesthesia using pentobarbital and propofol administered intravenously (Table 6).

rabbits = test: In vivo neuromuscular block and cardiovascular side effects, rabbit (Example 8, Table 7); details: for ΔBP (change in arterial blood pressure) / ΔH (change in heart rate): in vivo; for ED50: intravenous dose causing 50% neuromuscular block; for RI (recovery index): spontaneous recovery, 25-75% neuromuscular response; for Onset: time to 80-85% neuromuscular block
[3] = at 80-85% neuromuscular blocking dose

CCC(=O)Oc1ccc(C[N+]2(C)C3CCCC2CC(OC(=O)CCCCC(=O)OC2CC4CCCC(C2)[N+]4(C)Cc2ccc(OC(=O)CC)c(OC(=O)CC)c2)C3)cc1OC(=O)CC.[Br-].[Br-] (centres unmarked) [bis[N-(3,4-dipropionyloxybenzyl)granataninium-3-yl]adipate dibromide]
VB (vagal block) ([1]; in vivo): 0%
ΔBP (change in arterial blood pressure) ([1]; in vivo): −4%
ΔH (change in heart rate) ([1]; in vivo): 0%
ED50 [1]: 0.32 mg/kg
RI (recovery index) [1]: 0.35 min
Onset [1]: 0.4 min
VB (vagal block) [2]: 43%
ΔBP (change in arterial blood pressure) [2]: 0%
ΔH (change in heart rate) [2]: 0%
ED50 [2]: 0.275 mg/kg
RI (recovery index) [2]: 0.4 min
Onset [2]: 0.45 min
ΔBP (change in arterial blood pressure) (rabbits): 0%
ΔH (change in heart rate) (rabbits): 0%
ED50 (rabbits): 0.16 mg/kg
RI (recovery index) (rabbits): 0.5 min
Onset (rabbits): 0.5 min

COc1cc(C[N+]2(C)C3CCC2CC(OC(=O)C2C4C=CC(C4)C2C(=O)OC2CC4CCC(C2)[N+]4(C)Cc2cc(OC)c(OC(C)=O)c(OC)c2)C3)cc(OC)c1OC(C)=O.[Br-].[Br-] (stereo not drawn) [bis[N-(4-acetoxy-3,5-dimethoxybenzyl)tropanium-3α-yl]trans-3,6-endomethylene-1,2,3,6-tetrahydrophthalate dibromide]
VB (vagal block) [1, 3]: 20%
ΔBP (change in arterial blood pressure) [1, 3]: 0%
ΔH (change in heart rate) [1, 3]: 0%
ED50 [1]: 0.2 mg/kg
RI (recovery index) [1]: 0.8 min
Onset [1]: 0.7 min
VB (vagal block) [2]: 26%
ΔBP (change in arterial blood pressure) [2]: 0%
ΔH (change in heart rate) [2]: 0%
ED50 [2]: 0.343 mg/kg
RI (recovery index) [2]: 2 min
Onset [2]: 0.54 min
ΔBP (change in arterial blood pressure) (rabbits): 0%
ΔH (change in heart rate) (rabbits): 0%
ED50 (rabbits): 0.145 mg/kg
RI (recovery index) (rabbits): 0.45 min
Onset (rabbits): 0.45 min

CCC(=O)Oc1ccc(C[N+]2(C)C3CCCC2CC(OC(=O)CCCC(=O)OC2CC4CCCC(C2)[N+]4(C)Cc2ccc(OC(=O)CC)c(OC(=O)CC)c2)C3)cc1OC(=O)CC.[Br-].[Br-] (centres unmarked) [bis[N-(3,4-dipropionyloxybenzyl)granataninium-3-yl]glutarate dibromide]
VB (vagal block) ([1]; in vivo): 0%
ΔBP (change in arterial blood pressure) ([1]; in vivo): 0%
ΔH (change in heart rate) ([1]; in vivo): 0%
ED50 [1]: 0.26 mg/kg
RI (recovery index) [1]: 0.4 min
Onset [1]: 0.55 min
VB (vagal block) [2]: 35%
ΔBP (change in arterial blood pressure) [2]: 0%
ΔH (change in heart rate) [2]: 0%
ED50 [2]: 0.23 mg/kg
RI (recovery index) [2]: 0.65 min
Onset [2]: 0.5 min
ΔBP (change in arterial blood pressure) (rabbits): 0%
ΔH (change in heart rate) (rabbits): 0%
ED50 (rabbits): 0.135 mg/kg
RI (recovery index) (rabbits): 0.55 min
Onset (rabbits): 0.7 min

CCC(=O)Oc1ccc(C[N+]2(C)C3CCCC2CC(OC(=O)CCCCCC(=O)OC2CC4CCCC(C2)[N+]4(C)Cc2ccc(OC(=O)CC)c(OC(=O)CC)c2)C3)cc1OC(=O)CC.[Br-].[Br-] (centres unmarked) [bis[N-(3,4-dipropionyloxybenzyl)granataninium-3-yl]pimelate dibromide]
VB (vagal block) ([1]; in vivo): 2%
ΔBP (change in arterial blood pressure) ([1]; in vivo): −6%
ΔH (change in heart rate) ([1]; in vivo): −3%
ED50 [1]: 0.45 mg/kg
RI (recovery index) [1]: 0.35 min
Onset [1]: 0.5 min
VB (vagal block) [2]: 30%
ΔBP (change in arterial blood pressure) [2]: 0%
ΔH (change in heart rate) [2]: 0%
ED50 [2]: 0.7 mg/kg
RI (recovery index) [2]: 0.5 min
Onset [2]: 0.5 min
ΔBP (change in arterial blood pressure) (rabbits): 0%
ΔH (change in heart rate) (rabbits): 0%
ED50 (rabbits): 0.5 mg/kg
RI (recovery index) (rabbits): 0.4 min
Onset (rabbits): 0.45 min
